Key:
HCV = assay: Dose selection: antiviral response and Emax PK/PD modeling; format: in vivo, Hepatitis C virus; settings: for breakthrough (BT) rate: in combination with other therapeutic agents
Description: The sofosbuvir dose selected for the tablet formulation is 400 mg once daily. Support for the 400 mg sofosbuvir dose can be derived from Emax PK/PD modeling with early virological and human exposure data which also supports the selection of a 400 mg sofosbuvir dose over others tested.
The mean sofosbuvir major metabolite AUCtau for the 400 mg sofosbuvir dose is associated with approximately 77% of the maximal HCV RNA change from baseline achievable as determined by this model, a value which is on the cusp of the plateau of the exposure-response sigmoidal curve. […] Therefore, given that sofosbuvir exposure with 200 mg tablets appears dose-proportional with single doses up to 1200 mg, doses below 400 mg are expected to yield considerable reductions in the magnitude of HCV RNA change from baseline.
The sofosbuvir dose of 400 mg once daily was associated with higher SVR rates in genotype 1 HCV infected patients as compared to the 200 mg once daily dose when given in conjunction with additional HCV therapeutics for 24 weeks. Safety and tolerability appeared similar across both dose levels. In addition, when sofosbuvir 400 mg once daily plus other HCV therapeutics were given to genotype 2 or 3 HCV infected patients, 100% SVR24 was observed.
The maximum median HCV RNA log 10 reduction was 3 or greater for all cohorts dosed with ≥3 mg of ledipasvir. […] Therefore, 30 mg and 90 mg of ledipasvir were selected as the dose for the formulations described herein.
Therefore, the 90 mg dose of ledipasvir may confer a greater antiviral coverage that prevents viral breakthrough.

[1] = Compatibility/stability of sofosbuvir and ledipasvir:copovidone solid dispersion blend; format: physicochemical; settings: for Strength / Total Impurity Content: blend pellets, open glass vials
Description: The compatibility of sofosbuvir anhydrous crystalline drug substance was evaluated with the ledipasvir:copovidone solid dispersion. A blend of the sofosbuvir and ledipasvir:copovidone (1:1) solid dispersion was prepared at a ratio representative of the final 400 mg sofosbuvir/90 mg ledipasvir tablets. […]

[2] = pH-solubility profile and solubility in simulated intestinal media; format: physicochemical
Description: Excess solid ledipasvir was added to a range of pH-adjusted aqueous solutions (titrated with HCl or NaOH) and stirred for 48 hours at room temperature. The suspensions were then filtered through regenerated cellulose syringe filters. The pH value of the supernatant was measured, and the supernatant was diluted as appropriate with 50:50 H2O+0.1% TFA:ACN and assayed for ledipasvir content by the HPLC-UV method.
Solubility of ledipasvir amorphous free base was assessed in three types of simulated intestinal fluids at pH 6.5 or pH 5.0; and simulated intestinal bile salt and lecithin mixture (SIBLM), pH 6.4. Excess solid ledipasvir was added to the respective SIFs and stirred for 48 hours at room temperature. The resulting suspensions were then filtered through regenerated cellulose syringe filters. The supernatant was diluted as appropriate with 50:50 H2O+0.1% TFA:ACN and assayed for ledipasvir content by the HPLC-UV method.

[3] = as above; format: physicochemical; remark: listed apart in the source
[4] = Ledipasvir single-dose PK by concomitant food intake status; format: in vivo; settings: for CL/F: Ledipasvir 30 mg single dose, N = 8, mean
[5] = PK of Sofosbuvir/Ledipasvir tablets fasted or with meals; settings: for AUC(0-inf) / AUC(0-t) / Cmax: plasma, po, plasma analyte, n = 29, mean (% CV); for AUC(0-inf): AUCinf; for AUC(0-t): AUClast
[6] = Pharmacokinetics of sofosbuvir and ledipasvir alone or in combination; format: in vivo; set-up: AUC(0-inf): concentration or dose not given beside the values; settings: for AUC(0-inf): plasma
[7] = nonlinear least-square regression fit of pH-solubility profile
[8] = Sofosbuvir/Ledipasvir Tablet, Fasted
[9] = Sofosbuvir/Ledipasvir Tablet, High-Calorie/High-Fat Meal
[10] = Sofosbuvir/Ledipasvir Tablet, Moderate-Fat Meal
[11] = Sofosbuvir + Ledipasvir vs single agent alone
[12] = po, plasma analyte, Ledipasvir alone, n = 17, mean (% CV)

## COC(=O)N[C@H](C(=O)N1CC2(CC2)C[C@H]1c1ncc(-c2ccc3c(c2)C(F)(F)c2cc(-c4ccc5nc([C@@H]6[C@H]7CC[C@H](C7)N6C(=O)[C@@H](NC(=O)OC)C(C)C)[nH]c5c4)ccc2-3)[nH]1)C(C)C [Ledipasvir, (1-{3-[6-(9,9-difluoro-7-{2-[5-(2-methoxycarbonylamino-3-methyl-butyryl)-5-aza-spiro[2.4]hept-6-yl]-3H-imidazol-4-yl}-9H-fluoren-2-yl)-1H-benzoimidazol-2-yl]-2-aza-bicyclo[2.2.1]heptane-2-carbonyl}-2-methyl-propyl)-carbamic acid methyl ester]
HCV; 30 mg dose, genotype 1a HCV infected patients
  share of maximal antiviral response (Emax PK/PD model): > 95%
HCV; 30 mg, 11/33
  breakthrough (BT) rate: 33%
HCV; 90 mg, 9/74
  breakthrough (BT) rate: 12%
[1]; 40° C./75% RH and 60° C./ambient humidity, two and four weeks
  degradation in blend with the other active: no degradation was observed
[1]; 45° C./75% RH, 0 weeks
  Strength: 98.8%
  Total Impurity Content: 0.0%
[1]; 45° C./75% RH, 2 weeks
  Strength: 96.9%
  Total Impurity Content: 0.0%
[1]; 45° C./75% RH, 4 weeks
  Strength: 97.1%
  Total Impurity Content: 0.0%
[1]; 60° C., 0 weeks
  Strength: 98.8%
  Total Impurity Content: 0.0%
[1]; 60° C., 1 week
  Strength: 99.2%
  Total Impurity Content: 0.0%
[1]; 60° C., 2 weeks
  Strength: 99.6%
  Total Impurity Content: 0.0%
[1]; 60° C., 4 weeks
  Strength: 98.9%
  Total Impurity Content: 0.0%
[2]
  BCS classification: BCS Class 2
[2]; [7]
  pKa1: 5.0
  pKa2: 4.0
[3]
  permeability: high permeability
[4]; Ledipasvir 30 mg
  AUCinf GLSM Ratio (Fed/Fasted): 55.55%
  AUClast GLSM Ratio (Fed/Fasted): 56.71%
  Cmax GLSM Ratio (Fed/Fasted): 54.90%
[4]; fasted
  CL/F: 17,034.5 mL/h
[4]; fed (high-fat meal)
  CL/F: 26,917.9 mL/h
[4]; high-fat meal vs fasted, 30 mg
  decrease each in mean Cmax, AUClast, and AUCinf: approximately 45%
[4]; ledipasvir alone in a conventional formulation
  decrease in exposure with a high-fat meal relative to fasted state: roughly 2 fold
[5]; Sofosbuvir/Ledipasvir Tablet
  % GMR (90% CI) [Moderate-Fat/Fasted] of AUCinf: 115 (99.4, 134) %
  % GMR (90% CI) [Moderate-Fat/Fasted] of AUClast: 114 (98.0, 133) %
  % GMR (90% CI) [Moderate-Fat/Fasted] of Cmax: 109 (93.5, 126) %
  GMR (90% CI) [High-Fat/Fasted] of AUCinf: 103 (88.5, 119) %
  GMR (90% CI) [High-Fat/Fasted] of AUClast: 104 (88.8, 121) %
  GMR (90% CI) [High-Fat/Fasted] of Cmax: 88.2 (75.8, 103) %
[5]; [8]
  AUC(0-inf): 10600 ng·h/mL
  AUC(0-t): 8600 ng·h/mL
  Cmax: 324 ng/mL
[5]; [9]
  AUC(0-inf): 9220 ng·h/mL
  AUC(0-t): 7550 ng·h/mL
  Cmax: 255 ng/mL
[5]; [10]
  AUC(0-inf): 10600 ng·h/mL
  AUC(0-t): 8650 ng·h/mL
  Cmax: 319 ng/mL
[5]; sofosbuvir/ledipasvir composition, fed vs fasted
  effect of food on pharmacokinetics: does not appear to be altered by food
[6]; [11]
  % GMR (90% CI) of AUCinf: 95.7 (92.1, 99.5) %
  % GMR (90% CI) of AUClast: 96.5 (89.9, 104) %
  % GMR (90% CI) of Cmax: 95.5 (91.9, 99.1) %
[6]; [12]
  AUC(0-inf): 11900 ng·h/mL
  Cmax: 375 ng/mL
[6]; po, plasma analyte, Sofosbuvir + Ledipasvir, n = 17, mean (% CV)
  AUC(0-inf): 11400 ng·h/mL
